Test results published in patent US20080004235A1, “TOPICAL COMPOSITIONS COMPRISING ONE OR MORE OF 4-THIOURIDINE, ISOMALTITOL AND URIDINE” (priority 2005, published 2008).

Experiments:
[1] = tested on: rats; details: rat, in vivo; cited from earlier work
[2] = cited from earlier work
[3] = tested on: skin; assay: Preliminary safety evaluation of topical exposure (SLS or UVB provoked skin), methodological study on humans; format: in vivo, human
Text: Skin irritation and dermatitis is a common problem among health care professionals due to frequent washing. We have utilized two well-established skin irritation models to investigate the effect of topically administered uridine or isomalt on skin physiology including measurement of dermal blood flow. Isomalt consists of 1,6-glucopyranosyl-D-sorbitol (GPS, isomaltitol) and 1,1-glucopyranosyl-D-mannitol (GPM) in a 1:1 ratio. The methodological study involves the study of various physiological parameters, such as dermal blood flow and visual assessment of erythema, subsequent to provocation by either exposure to UVB light or Sodium Lauryl Sulphate (SLS) and the effects of isomalt and uridine on these parameters. Only a very small area of the skin was exposed to the irritants UVB or SLS. The methodological study has been approved by the Medical Products Agency, Sweden and the Regional Ethical Review Board, Linköping, Sweden.
UVB provocation with a divergent beam produces a circular, radially fading skin erythema, the diameter of which corresponds to the minimal erythemal dose. […] SLS, which is a detergent, creates a local skin irritation mainly by disturbing the skins barrier function. A methodological study has been performed, both to evaluate the effects of uridine or isomalt on skin UVB-induced erythema and SLS irritation. […]

Which results are given for `OC[C@H](O)[C@@H](O)[C@H](O)[C@H](O)CO[C@H]1O[C@H](CO)[C@@H](O)[C@H](O)[C@H]1O` [isomaltitol, 6-O-α-D-glucopyranosyl-D-sorbitol]?
toxic effect [1]: doesn't seem to have any toxic effect; rise in blood glucose and insulin levels ([2]; compared to sugars and other carbohydrates): only a very small rise; absorption ([2]; in vivo): very slow and limited

With `O=c1ccn([C@@H]2O[C@H](CO)[C@@H](O)[C@H]2O)c(=O)[nH]1` [uridine] as the molecule, how does the “untoward effects such as exacerbated skin irritation or itching related to the exposure” value ([3]; saturated solution, topical exposure for 24 hours, all individuals) read?
Its value is “no untoward effects”.

Which “untoward effects such as exacerbated skin irritation or itching related to the exposure” value ([3]; in vivo) does the source give for isomalt here?
Its value is “no untoward effects”.
